Assay results reported in patent publication US7572811B2, “Immunosuppressant compounds and compositions” (IRM LLC, priority 2004, dated 2009).
Where two headings read alike, the source gives them in different places.

Key:
[1] = test system: peripheral blood lymphocytes; test: Measurement of circulating lymphocytes (blood lymphocyte depletion); assay type: in vivo, Mice (C57bl/6 male); settings: Mus musculus, mice, oral gavage, read-out: ED50 (effective dose for 50% blood lymphocyte depletion)
Method: C. In Vivo: Screening Assays for Measurement of Blood Lymphocyte Depletion and Assessment of Heart Effect
Measurement of circulating lymphocytes: Compounds are dissolved in DMSO and diluted to obtain a final concentration of 4% DMSO (v/v, final concentration) and then further diluted in a constant volume of Tween80 25%/H2O, v/v. Tween80 25%/H2O (200 μl), 4% DMSO, and FTY720 (10 μg) are included as negative and positive controls, respectively. Mice (C57bl/6 male, 6-10 week-old) are administered 250-300 μL of compound solution orally by gavages under short isoflurane anesthesia.
[…] Whole blood samples are subjected to hematology analysis. Peripheral lymphocyte counts are determined using an automated analyzer. Subpopulations of peripheral blood lymphocytes are stained by fluorochrome-conjugated specific antibodies and analyzed using a fluorescent activating cell sorter (Facscalibur). Two mice are used to assess the lymphocyte depletion activity of each compound screened. The result is an ED50, which is defined as the effective dose required displaying 50% of blood lymphocyte depletion.

human EDG-1 (S1P-1) = target: T1, human EDG-1 (S1P-1) (Homo sapiens, UniProt P21453); test: EDG-1 (S1P1) GTP [γ-35S] binding SPA assay; assay type: biochemical; settings: for EC50: GTP [γ-35S] binding, CHO cell membranes
T1 construct: c-myc (N); expressed in transfected cells; host or cells: CHO cell clones (membrane preparation)
T1 sequence (P21453 whole entry): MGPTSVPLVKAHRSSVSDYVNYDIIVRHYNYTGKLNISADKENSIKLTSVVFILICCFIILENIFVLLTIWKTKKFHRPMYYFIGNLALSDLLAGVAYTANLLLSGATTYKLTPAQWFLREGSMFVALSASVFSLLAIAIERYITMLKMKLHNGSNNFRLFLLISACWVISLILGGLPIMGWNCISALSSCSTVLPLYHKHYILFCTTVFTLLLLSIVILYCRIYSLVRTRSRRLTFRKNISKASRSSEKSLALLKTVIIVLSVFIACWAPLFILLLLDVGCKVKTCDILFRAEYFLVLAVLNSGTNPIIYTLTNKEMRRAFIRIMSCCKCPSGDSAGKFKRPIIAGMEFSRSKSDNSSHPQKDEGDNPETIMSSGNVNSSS
Method: (§1) A. In Vitro: A Scintillation Proximity Assay (SPA) for Measuring GTP [γ-^35S] Binding to Membranes Prepared from CHO Cells Expressing Human EDG/S1P Receptors
(§2) EDG-1 (S1P1) GTP [γ-^35S] binding assay: Membrane protein suspensions are prepared from CHO cell clones stably expressing a human EDG-1 N-terminal c-myc tag. Solutions of test compounds ranging from 10 mM to 0.01 nM are prepared in DMSO/50 mM HCl and then diluted into assay buffer (20 mM HEPES, pH7.4, 100 mM NaCl, 10 mM MgCl2, 0.1% fat free BSA). Assay buffer containing 10 mM GDP is mixed with wheat germ agglutinin-coated SPA-beads (1 mg/well) followed by the addition of human EDG-1 membrane protein suspension (10 μg/well) and test compound. The bead/membrane/compound assay components are then mixed for 10-15 minutes on a shaker at room temperature. GTP [γ-^35S] (200 pM) and bead/membrane/compound assay mixture are added to individual wells of a 96 well Optiplate™ (final volume 225 μl/well), sealed and incubated at room temperature for 110 to 120 minutes under constant shaking. After centrifugation (2000 rpm, 10 minutes) luminescence is measured with a TopCount™ instrument.
EC50 values are obtained by fitting the GTP [γ-^35S] binding curves (raw data) with the dose response curve-fitting tool of ORIGIN V. 6.1. Basal binding (no compound) and the highest stimulation of GTP [γ-^35S] binding achieved by an agonist are used as the fitting range. Seven different concentrations are used to generate a concentration response curve (using two or three data points per concentration).
Concentrations of EDG receptor expressing membranes range between 13-19 μg per well.

S1P-2 (EDG-5) = target: T2, S1P-2 (EDG-5) (Homo sapiens, UniProt O95136); test: EDG-5 GTP [γ-35S] binding SPA assay; assay type: biochemical
T2 construct: expressed in transfected cells; host or cells: CHO cells (membrane preparation)
T2 sequence (O95136 whole entry): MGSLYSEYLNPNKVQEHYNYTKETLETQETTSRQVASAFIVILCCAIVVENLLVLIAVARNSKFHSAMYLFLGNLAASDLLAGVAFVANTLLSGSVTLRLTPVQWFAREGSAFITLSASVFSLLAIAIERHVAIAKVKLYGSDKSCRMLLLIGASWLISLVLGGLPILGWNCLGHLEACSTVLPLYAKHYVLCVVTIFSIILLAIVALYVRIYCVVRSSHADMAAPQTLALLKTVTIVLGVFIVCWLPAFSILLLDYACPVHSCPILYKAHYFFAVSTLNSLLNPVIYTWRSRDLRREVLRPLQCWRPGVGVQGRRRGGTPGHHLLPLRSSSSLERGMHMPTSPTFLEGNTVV
Method: as §1, §2
(§3) EC50 values are obtained by fitting the GTP [γ-^35S] binding curves (raw data) with the dose response curve-fitting tool of ORIGIN V. 6.1. […]

S1P-4 (EDG-6) = target: T3, S1P-4 (EDG-6) (Homo sapiens, UniProt O95977); test: EDG-6 GTP [γ-35S] binding SPA assay; assay type: biochemical
T3 sequence (O95977 1-384): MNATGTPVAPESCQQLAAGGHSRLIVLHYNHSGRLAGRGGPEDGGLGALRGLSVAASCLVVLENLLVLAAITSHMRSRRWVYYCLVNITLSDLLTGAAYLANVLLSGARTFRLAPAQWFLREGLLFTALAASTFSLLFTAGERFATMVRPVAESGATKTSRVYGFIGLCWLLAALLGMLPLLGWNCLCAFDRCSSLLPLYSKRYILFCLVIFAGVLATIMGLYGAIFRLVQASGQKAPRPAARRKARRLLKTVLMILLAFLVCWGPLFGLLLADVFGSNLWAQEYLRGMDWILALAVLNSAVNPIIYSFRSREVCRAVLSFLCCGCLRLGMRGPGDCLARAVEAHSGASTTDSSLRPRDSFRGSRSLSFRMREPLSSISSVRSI
Method: as §1, §2, §3

S1P-3 (EDG-3) = S1P-3 (EDG-3) (Homo sapiens, UniProt Q99500); test: EDG-3 GTP [γ-35S] binding SPA assay; assay type: biochemical
S1P-3 (EDG-3), sequence (Q99500 whole entry): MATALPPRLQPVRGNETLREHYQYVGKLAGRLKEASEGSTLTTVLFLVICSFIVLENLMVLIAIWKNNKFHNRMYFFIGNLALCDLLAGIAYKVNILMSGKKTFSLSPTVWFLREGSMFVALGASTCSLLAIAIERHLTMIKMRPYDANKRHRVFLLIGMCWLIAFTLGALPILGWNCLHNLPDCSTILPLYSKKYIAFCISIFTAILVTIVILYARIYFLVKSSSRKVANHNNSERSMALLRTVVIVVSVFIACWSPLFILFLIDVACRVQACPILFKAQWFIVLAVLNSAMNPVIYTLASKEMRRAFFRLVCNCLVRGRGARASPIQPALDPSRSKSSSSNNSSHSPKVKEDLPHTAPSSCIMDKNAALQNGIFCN
Method: as §1, §2, §3

S1P-5 (EDG-8) = target: T4, S1P-5 (EDG-8) (Homo sapiens, UniProt Q9H228); test: EDG-8 GTP [γ-35S] binding SPA assay; assay type: biochemical
T4 construct: expressed in transfected cells; host or cells: RE7777 cells as printed (membrane preparation)
T4 sequence (Q9H228 whole entry): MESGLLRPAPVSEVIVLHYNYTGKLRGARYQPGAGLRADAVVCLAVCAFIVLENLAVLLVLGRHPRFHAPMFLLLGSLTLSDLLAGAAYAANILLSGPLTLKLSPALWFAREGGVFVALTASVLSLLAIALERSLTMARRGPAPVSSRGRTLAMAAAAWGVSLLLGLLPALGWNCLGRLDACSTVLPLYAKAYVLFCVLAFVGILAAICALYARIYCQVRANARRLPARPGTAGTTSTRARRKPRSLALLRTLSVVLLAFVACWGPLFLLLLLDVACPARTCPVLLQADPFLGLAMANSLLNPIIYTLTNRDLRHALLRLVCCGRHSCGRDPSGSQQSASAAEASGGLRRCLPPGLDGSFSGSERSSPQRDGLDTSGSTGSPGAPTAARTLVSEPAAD
Method: as §1, §2, §3

For `Cc1cc(OCc2ccc(C3CCN(CCC(=O)O)CC3)cc2)ccc1C1CCCCC1` [Example 1, 3-{4-[4-(4-Cyclohexyl-3-methyl-phenoxymethyl)-phenyl]-piperidin-1-yl}-propionic acid], the ED50 ([1]; time point not stated) was 0.1 mg/kg, the EC50 (human EDG-1 (S1P-1)) was 0.22 nM and the “selectivity for S1P-1 compared to one or more of the other receptors” value (human EDG-1 (S1P-1); versus S1P-3, S1P-5, S1P-6 and S1P-8 as printed) was “at least 1000 fold”.
`Cc1cc(OCc2ccc(C3CCN(CCC(=O)O)CC3)cc2)ccc1-c1ccccc1` [Example 8, 3-{4-[4-(2-Methyl-biphenyl-4-yloxymethyl)-phenyl]-piperidin-1-yl}-propionic acid] gave an EC50 (S1P-2 (EDG-5)) greater than 10000 nM, an EC50 (S1P-4 (EDG-6)) greater than 10000 nM and an ED50 ([1]; at 6 hours) of 0.2 mg/kg. The ED50 ([1]; at 48 hours) was 0.8 mg/kg, the EC50 (S1P-3 (EDG-3)) was 2000 nM and the EC50 (S1P-5 (EDG-8)) was 370 nM. For the same compound, the EC50 (human EDG-1 (S1P-1)) was 2 nM.
